Experimental data: patent publication US20230045245A1, “HETEROCYCLIC COMPOUND OR SALT THEREOF, ACTIVE MATERIAL, ELECTROLYTIC SOLUTION AND REDOX FLOW BATTERY” (NIPPON KAYAKU KABUSHIKI KAISHA, priority 2020, published 2023)
Where two headings read alike, the source gives them in different places.

Columns and labels:
[1] = Solubility to water calculated from UV-visible absorbance; conditions: for Solubility (%): saturated solution in water, diluted with standard buffer pH 6.86 (25° C.), absorbance at maximum absorption wavelength 300-550 nm, calibration curve
Method: (§1) The measurement of the absorbance used an ultraviolet-visible spectrometer (UV-1700, manufactured by Shimadzu Corp.). Solutions of known concentrations of a sample were prepared by using a standard buffer solution (manufactured by Fujifilm Wako Pure Chemical Corp., a neutral phosphate salt pH standard solution, pH: 6.86 (25° C.)), and the absorbances at the maximum absorption wavelength in the wavelength region of 300 nm to 550 nm were measured by the ultraviolet-visible spectrometer. A calibration curve was fabricated from the obtained absorbances and the concentrations. Then, a saturated solution of the sample was prepared by using water and was diluted by using the standard buffer solution. The absorbance at the maximum absorption wavelength was measured and the solubility (%) was calculated from the calibration curve. The density of the solution was assumed to be 1.0 g/cm^3 and the solubility (mol/L) was calculated.

[2] = pH 6.86
Method: as §1

[3] = water, thermodynamic from solid
[4] = solubility to water, calculated from solubility (%), density of the solution assumed to be 1.0 g/cm^3

| Compound | Solubility (%) [1] [%] | solubility [1, 3] [mM] | solubility [1, 4] [mM] | Solubility (%) [2] [%] |
| --- | --- | --- | --- | --- |
| O=C1c2ccccc2C(=O)c2c1cc(OCCCS(=O)(=O)[O-])c(OCCCS(=O)(=O)[O-])c2OCCCS(=O)(=O)[O-].[Na+].[Na+].[Na+] [formula (3-3)] | 35.3 | 510 |  |  |
| O=C1c2cccc(S(=O)(=O)[O-])c2C(=O)c2cccc(S(=O)(=O)[O-])c21.[Na+].[Na+] [9,10-anthraquinone-1,5-disulfonic acid (Na), reference compound] | 2.7 |  | 70 |  |
| O=C1c2cccc(S(=O)(=O)[O-])c2C(=O)c2c1cccc2S(=O)(=O)[O-].[K+].[K+] [9,10-anthraquinone-1,8-disulfonic acid (K), reference compound] | 0.2 |  | 4 |  |
| O=C1c2cc(OCCOCCOCCO)c(O)c(OCCOCCOCCO)c2C(=O)c2cc(OCCOCCOCCO)c(O)c(OCCOCCOCCO)c21 [formula (3-5)] | 41.8 | 500 |  |  |
| O=C1c2ccccc2C(=O)c2cc(S(=O)(=O)[O-])ccc21.[Na+] [9,10-anthraquinone-2-sulfonic acid (Na)] |  |  |  | 0.7 |
| O=C([O-])COc1cc2c(c(OCC(=O)[O-])c1OCC(=O)[O-])C(=O)c1cc(OCC(=O)[O-])c(OCC(=O)[O-])c(OCC(=O)[O-])c1C2=O.[K+].[K+].[K+].[K+].[K+].[K+] [formula (3-2)] | 17.7 | 200 |  |  |
| O=C1C(SCCCS(=O)(=O)[O-])=C(SCCCS(=O)(=O)[O-])C(=O)c2ccccc21.[K+].[K+] [formula (2-1)] | 36.6 | 670 |  |  |
